Test results: patent US5543496A, “Cyclic bradykinin antagonist peptides” (Scios Nova Inc., priority 1994, dated 1996)
Positions of bridges follow the written chain, without caps; N, C: chain ends. Non-standard residues stand in square brackets, D forms with d. Residues, ends and D or L forms follow the SMILES beside them. Oic = O=C(O)[C@@H]1C[C@@H]2CCCC[C@@H]2N1; dTic = O=C(O)[C@H]1Cc2ccccc2CN1

Legend:
[1] = anesthetized rat, intra-aortic vs intravenous administration; cited from earlier work
[2] = cited from earlier work
[3] = target: T1, bradykinin receptors on intestinal (ileal longitudinal) smooth muscle (Cavia porcellus, UniProt O70526); assay: Bradykinin antagonist activity on guinea pig ileal longitudinal smooth muscle (Schild analysis); type: cell-based; conditions: antagonism of bradykinin-induced contraction, 5 min exposure, read-out: pA2 (converted)
T1 construct: The longitudinal muscle was separated from the underlying circular muscle; from tissue; host or cells: guinea pig ileal longitudinal smooth muscle strips in tissue bath
T1 sequence (O70526 1-372): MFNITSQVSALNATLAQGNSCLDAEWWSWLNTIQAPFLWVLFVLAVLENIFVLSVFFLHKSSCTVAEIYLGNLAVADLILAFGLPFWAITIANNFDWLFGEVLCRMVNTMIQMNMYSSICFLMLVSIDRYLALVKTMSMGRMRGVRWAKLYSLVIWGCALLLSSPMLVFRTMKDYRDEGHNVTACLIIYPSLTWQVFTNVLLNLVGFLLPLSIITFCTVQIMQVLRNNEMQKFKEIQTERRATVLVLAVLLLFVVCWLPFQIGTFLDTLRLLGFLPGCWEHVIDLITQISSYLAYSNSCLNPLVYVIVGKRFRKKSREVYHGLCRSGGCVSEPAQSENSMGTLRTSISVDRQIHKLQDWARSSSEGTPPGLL
Description: Guinea pig intestine was removed and placed in a Petri dish containing Tyrodes solution and cut into 3-4 cm segments. The longitudinal muscle was separated from the underlying circular muscle using a cotton applicator (Paton and Zar, J. Physiol., (1968), 194:13. Muscle strips were connected to isometric force-displacement transducers (Grass or Gould) coupled to a physiograph and placed in tissue baths containing Tyrode's solution at 37° C. Each preparation was suspended under a resting tension of 2 g.
After equilibration of the tissues, appropriate volumes of bradykinin solutions were cumulatively added to the 10 mL tissue baths to increase the concentration of bradykinin in the bath step-by-step without washing out after each single dose. Higher concentrations were added only after the preceding contraction had reached a steady value. […] Antagonism of badykinin responses in the presence of antagonist were determined by repeating the cumulative addition procedure for bradykinin after the tissue has been exposed to the antagonist for 5 minutes. Three or four different concentrations of antagonist are studied sequentially in the same preparations. Responses were expressed as a percentage of the maximum contraction elicited by bradykinin in the absence of antagonist. pA2 values were calculated by Schild analysis.

bradykinin receptor = target: T2, bradykinin receptor (Cavia porcellus, UniProt O70526); assay: 3H-Bradykinin binding assay, guinea pig ileum membranes; conditions: displacement of 3H-bradykinin, terminal ileum homogenate of male Hartley guinea pigs, 90 min ambient temperature
T2 construct: from tissue; host or cells: guinea pig terminal ileum, washed membrane homogenate
T2 sequence (O70526 1-372): T1 sequence (O70526 1-372)
Description: Binding of ^3 H-Bradykinin was performed using the method of D. C. Manning, R. Vavrek, J. M. Stewart, and S. H. Snyder, J. Pharmacol. Exp. Ther., (1986), 237, 504. The tissues used in the binding assay were terminal ileum from male Hartley guinea pigs (150-350 g). After dissection, tissues were placed in 20 vol of ice-cold buffer A (25 mM TES containing 0.2 g/L of 1,10-phenanthroline adjusted of pH 6.8 with ammonium hydroxide) and homogenized using a Ploytron Tissumizer at setting 6 for 15 sec. The homogenate was centrifuged at 50,000×g for 10 min, the supernatant discarded, and the pellet resuspended in ice-cold buffer A by homogenization with the Polytron. Each tissue was homogenized and centrifuged three times. The final pellet was resuspended in buffer A containing bovine serum albumin (1 g/L) and Bacitracin (0.14 g/L) to a final volume of 170 mL/g of the original tissue weight. […] Filters were dissolved in Ready-Safe Fluor (Beckman) for at least 90 min before quantitation by liquid scintillation spectrometry. Kd values were determined using saturation binding and analysis by EBDA (G. A. MacPherson, J. Pharmacol. Methods, (1985), 213), followed by LIGAND (P. J. Munson, D. Rodbard, Anal. Biochem., (1980), 220). Ki values were determined using competitive analysis followed by EBDA and LIGAND. […]

**Q.** What does the source list for “Bradykinin (RPPGFSPFR; Bradykinin; UniProt P01042 381-389, looked up) [nonapeptide hormone, native agonist]”?
**A.** destruction on a single passage through the pulmonary circulation [1]: 98-99%; half life in the systemic circulation [2]: less than 30 seconds

**Q.** For `N=C(N)NCCC[C@@H](N)C(=O)N[C@@H](CCCNC(=N)N)C(=O)N[C@H]1CSSC[C@@H](C(=O)N[C@@H](CO)C(=O)N2Cc3ccccc3C[C@@H]2C(=O)N2[C@H](C(=O)N[C@@H](CCCNC(=N)N)C(=O)O)C[C@@H]3CCCC[C@@H]32)NC(=O)CNC(=O)[C@@H]2CCCN2C1=O` [drawing 26] (H-[dR]RCPGCS[dTic][Oic]R-OH; disulfide 3-6), which Kb [3] is on record?
**A.** 251 nM

**Q.** For `N=C(N)NCCC[C@@H](N)C(=O)N[C@@H](CCCNC(=N)N)C(=O)N[C@H]1CSSC[C@@H](C(=O)N[C@@H](CO)C(=O)N2Cc3ccccc3C[C@@H]2C(=O)N2[C@H](C(=O)N[C@@H](CCCNC(=N)N)C(=O)O)C[C@@H]3CCCC[C@@H]32)NC(=O)CNC(=O)[C@@H]2CCCN2C1=O` [drawing 23] (H-[dR]RCPGCS[dTic][Oic]R-OH; disulfide 3-6), which Ki (bradykinin receptor) is on record?
**A.** 1.5 ± 0.1 nM

**Q.** For `NC(N)=NCCC[C@@H](N)C(=O)N[C@@H](CCCN=C(N)N)C(=O)N[C@H]1CSSC[C@@H](C(=O)N2Cc3ccccc3C[C@@H]2C(=O)N2[C@H](C(=O)N[C@@H](CCCN=C(N)N)C(=O)O)C[C@@H]3CCCC[C@@H]32)NC(=O)[C@H](Cc2ccccc2)NC(=O)CNC(=O)[C@@H]2CCCN2C1=O` (H-[dR]RCPGFC[dTic][Oic]R-OH; disulfide 3-7), which Ki (bradykinin receptor) is on record?
**A.** 14.8 ± 0.34 nM
